# From patent publication US20210179623A1, “NEW CHEMICAL COMPOUND CONTAINING ACTIVE ENANTIOMETER S-(-) KETOROLAC TROMETHAMINE FOR THE TREATMENT OF PAIN” (priority 2017, published 2021)
# Read-outs that look alike come from different tables or passages of the source.
# Columns and labels:
# [1] = test system: gouty arthritis-type pain; experiment: PIFIR pain-induced functional impairment model in the rat; type: in vivo, male Wistar rats; conditions: for MAXIMUM EFFICACY (ABC: X ± E.E.): dose of each analgesic (mg/kg); for RELATIVE EFFICACY: relative to maximum efficacy of rac-ketorolac; for Emax reached in the temporal curve / latency in reaching the Emax in the temporal curve: highest doses
# Text: In order to determine and compare the antinociceptive effects of these analgesics the preclinical experimental model of PIFIR “pain-induced functional impairment model in the rat” was used.
# rat population = conditions: rats, oral route; FIG. 7
# plasmatic proteins = conditions: cited from earlier work
# [2] = cited from earlier work
# [3] = doses needed to generate 50% of the most effective effect, oral route
Molecule,"RELATIVE POTENCY (relative to 5-ketorolac) ([1]; PIFIR model, rats, oral route)","MAXIMUM EFFICACY (ABC: X ± E.E.) ([1]; PIFIR model, rats, oral route)","RELATIVE EFFICACY ([1]; PIFIR model, rats, oral route)","ED60 (mg/kg, oral route) (with regard to Emax: 324 au) ([1]; PIFIR model, rats) [mg/kg]",Emax reached in the temporal curve ([1]; oral route),latency in reaching the Emax in the temporal curve ([1]; oral route),lethal dose 50 (LD50) (rat population),"effective dose 50 (ED50, 50% of its own maximum effect) ([1]; PIFIR model, rats, oral route, FIG. 6)","times more potent than acetylsalicylic acid [1, 3] [times]","times more potent than morphine [1, 3] [times]","times more potent than rac-ketorolac [1, 3] [times]","fixed effect 4 hours after administration ([1]; higher doses, oral route, 4 hours)",bonds with plasmatic proteins (plasmatic proteins) [%],onset of the analgesic effects after administration ([2]; any presentation) [min],excreted renally as a conjugated metabolite ([2]; in vivo) [%],excreted renally as a hydroxylated metabolite ([2]; in vivo) [%],excreted renally as the unaltered drug ([2]; in vivo) [%],metabolized in the liver by conjugation ([2]; inactive metabolites) [%],time of maximum level ([2]; intravenous and intramuscular use),"time of maximum level ([2]; oral administration, tablets or capsules) [h]"
"CC(=O)Oc1ccccc1C(=O)O [Acetylsalicylic Acid, acetylsalicylic acid]","−1,036.9",226.6 ± 11.7,0.70,373.3 ± 1.7,smaller than those exhibited by the other analgesics,least latency in reaching its Emax,–,–,–,–,–,–,–,–,–,–,–,–,–,–
"2-amino-2-hydroximethyl-1,3 propanediol (1:1) S-(−)-5-benzoyl-2,3-dihydro-1H-pyrrolizine-1-carboxylate [S-(−)-ketorolac tromethamine]",–,310.5 ± 13.5,–,0.36 ± 1.0,"Emax similar to that exhibited by rac-ketorolac and morphine, but this Emax was higher than that exhibited by acetylsalicylic acid","latency similar to that exhibited by rac-ketorolac, but less than that exhibited by morphine","smaller than the acetylsalicylic acid, but larger than the one reported for rac-ketorolac and morphine",less than the rest of the active substances being studied,1037,82,3.3,the same as that exhibited for rac-ketorolac and by morphine but higher than that exhibited by acetylsalicylic acid,–,–,–,–,–,–,–,–
"O=C(c1ccccc1)c1ccc2n1CCC2C(=O)O (racemic) [rac-ketorolac, ketorolac tromethamine]",−3.3,324.6 ± 7.8,1.0,1.19 ± 1.2,–,–,–,–,–,–,–,–,99,30,21.9,11.5,60.2,21,first and second hour,3
"CN1CC[C@]23c4c5ccc(O)c4O[C@H]2[C@@H](O)C=C[C@H]3[C@H]1C5 [Morphine, morphine]",−81.5,310.8 ± 8.9,1.0,29.35 ± 1.1,–,–,–,–,–,–,–,–,–,–,–,–,–,–,–,–
